The target of experiment [1] is full length hCDK5/p25 (Homo sapiens, UniProt Q00535). The experiment in a line: γ-33P ATP filter binding assay, hCDK5/p25. The conditions noted are these: for IC50: CDK5/p25 IC50, ATP (Km) 30 μM. The experiment is classed as biochemical.
Experiment [2] addresses full length hCDK2/E (Homo sapiens, UniProt P24941). The experiment in a line: γ-33P ATP filter binding assay, hCDK2/E.
Experiment [3] has as its target CDK5/p25 (Homo sapiens, UniProt Q00535). The experiment is described as follows: ATP competitive binding assay. The experiment is classed as biochemical. The conditions noted are these: IC50 at increasing ATP concentrations, Lineweaver-Burk plot.
Experiment [4] concerns the target DYRK1/DYRK1A (Homo sapiens, UniProt Q13627). The experiment in a line: Kinase selectivity assay DYRK1/DYRK1A. The experiment is classed as biochemical. Conditions: read-out: DYRK1/DYRK1A % inhibition at 20 μM.
For experiment [5], the target named is CDK4/D1 (Homo sapiens, UniProt P11802). The experiment in a line: Kinase selectivity assay CDK4/D1. The experiment is classed as biochemical. The conditions noted are these: 20 μM compound, ATP Km 90 μM.
Sequence of CDK4/D1 (P11802 whole entry): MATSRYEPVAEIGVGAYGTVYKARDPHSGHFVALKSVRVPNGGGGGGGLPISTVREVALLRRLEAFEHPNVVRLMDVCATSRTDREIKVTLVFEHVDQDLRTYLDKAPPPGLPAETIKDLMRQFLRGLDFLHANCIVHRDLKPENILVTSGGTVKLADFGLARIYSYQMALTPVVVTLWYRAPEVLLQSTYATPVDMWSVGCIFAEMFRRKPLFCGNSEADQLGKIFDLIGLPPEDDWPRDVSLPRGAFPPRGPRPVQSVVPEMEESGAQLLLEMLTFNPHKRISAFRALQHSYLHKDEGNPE
Sequence of CDK4/D1 (P24385 whole entry partner): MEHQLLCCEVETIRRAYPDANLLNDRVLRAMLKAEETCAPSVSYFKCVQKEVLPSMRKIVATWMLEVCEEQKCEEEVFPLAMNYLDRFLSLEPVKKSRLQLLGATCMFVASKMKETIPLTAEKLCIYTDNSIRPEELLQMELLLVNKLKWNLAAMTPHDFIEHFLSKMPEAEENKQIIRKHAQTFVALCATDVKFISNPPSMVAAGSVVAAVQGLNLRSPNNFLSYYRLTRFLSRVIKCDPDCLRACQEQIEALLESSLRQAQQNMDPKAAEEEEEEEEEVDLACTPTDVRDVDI
The target in experiment [6] is PKA (Homo sapiens, UniProt P17612). The experiment is described as follows: Kinase selectivity assay PKA. Format: biochemical.
For experiment [7], the target named is CDK1/B (Homo sapiens, UniProt P06493). The experiment in a line: Kinase selectivity assay CDK1/B. Format: biochemical.
Experiment [8] concerns the target CDK2/A (Homo sapiens, UniProt P24941). The experiment in a line: Kinase selectivity assay CDK2/A. The conditions noted are these: read-out: CDK2/A % inhibition at 20 μM. The experiment is classed as biochemical.
For experiment [9], the target named is T1, PKCε (Homo sapiens, UniProt Q02156).
T1 sequence (Q02156 1-737): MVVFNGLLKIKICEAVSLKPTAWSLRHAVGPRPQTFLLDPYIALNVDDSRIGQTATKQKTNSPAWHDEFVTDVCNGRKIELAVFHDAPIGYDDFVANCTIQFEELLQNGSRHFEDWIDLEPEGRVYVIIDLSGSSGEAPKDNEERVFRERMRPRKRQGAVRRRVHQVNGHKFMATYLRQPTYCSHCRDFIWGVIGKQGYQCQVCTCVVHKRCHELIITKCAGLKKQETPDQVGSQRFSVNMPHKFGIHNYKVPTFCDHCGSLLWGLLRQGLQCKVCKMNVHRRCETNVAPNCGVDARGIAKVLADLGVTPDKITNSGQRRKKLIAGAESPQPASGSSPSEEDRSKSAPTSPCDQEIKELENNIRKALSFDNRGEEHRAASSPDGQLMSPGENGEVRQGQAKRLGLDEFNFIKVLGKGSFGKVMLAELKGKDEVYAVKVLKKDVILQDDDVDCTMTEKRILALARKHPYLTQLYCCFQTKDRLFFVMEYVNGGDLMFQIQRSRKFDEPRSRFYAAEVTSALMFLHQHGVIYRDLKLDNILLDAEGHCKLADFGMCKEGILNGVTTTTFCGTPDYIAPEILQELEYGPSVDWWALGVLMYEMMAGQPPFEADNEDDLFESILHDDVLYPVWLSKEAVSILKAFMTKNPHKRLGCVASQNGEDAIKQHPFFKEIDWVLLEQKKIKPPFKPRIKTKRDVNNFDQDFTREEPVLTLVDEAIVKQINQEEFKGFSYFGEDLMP
The experiment in a line: Kinase selectivity assay PKCε. Conditions: read-out: PKCε % inhibition at 20 μM. The experiment is classed as biochemical.

Experiment [10] deals with CK1a1 (Homo sapiens, UniProt P48729). The experiment in a line: Kinase selectivity assay CK1a1. Conditions: read-out: CK1a1 % inhibition at 20 μM. The experiment is classed as biochemical.
Sequence of CK1a1 (P48729 whole entry): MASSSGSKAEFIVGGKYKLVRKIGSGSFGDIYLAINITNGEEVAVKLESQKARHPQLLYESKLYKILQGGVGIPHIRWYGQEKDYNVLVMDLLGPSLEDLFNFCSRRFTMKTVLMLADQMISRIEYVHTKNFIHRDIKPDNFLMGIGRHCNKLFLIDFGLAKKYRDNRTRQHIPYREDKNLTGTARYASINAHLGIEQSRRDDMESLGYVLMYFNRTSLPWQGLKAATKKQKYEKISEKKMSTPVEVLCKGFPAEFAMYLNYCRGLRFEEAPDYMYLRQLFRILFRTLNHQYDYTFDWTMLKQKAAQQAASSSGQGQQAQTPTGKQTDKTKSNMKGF
The target of experiment [11] is GSK3β (Homo sapiens, UniProt P49841). The experiment in a line: Kinase selectivity assay GSK3β. The experiment is classed as biochemical. The conditions noted are these: read-out: GSK3β % inhibition at 20 μM.
Sequence of GSK3β (P49841 whole entry): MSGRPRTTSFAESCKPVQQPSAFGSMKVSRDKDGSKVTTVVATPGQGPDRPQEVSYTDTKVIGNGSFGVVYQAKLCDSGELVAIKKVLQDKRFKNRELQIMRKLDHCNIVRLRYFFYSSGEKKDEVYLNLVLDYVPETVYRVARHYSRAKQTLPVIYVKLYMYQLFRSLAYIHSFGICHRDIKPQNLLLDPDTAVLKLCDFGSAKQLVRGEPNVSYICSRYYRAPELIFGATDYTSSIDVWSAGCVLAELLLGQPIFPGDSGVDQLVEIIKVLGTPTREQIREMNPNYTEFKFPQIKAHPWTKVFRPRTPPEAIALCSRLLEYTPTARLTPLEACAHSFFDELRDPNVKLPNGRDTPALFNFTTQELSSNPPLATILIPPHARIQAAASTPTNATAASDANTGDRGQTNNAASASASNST
Experiment [12] has as its target CDK6/D1 (Homo sapiens, UniProt Q00534). The experiment in a line: Kinase selectivity assay CDK6/D1. Conditions: 20 μM compound, ATP Km 30 μM. Format: biochemical.
Experiment [13] deals with GSK3α (Homo sapiens, UniProt P49840). The experiment is described as follows: Kinase selectivity assay GSK3α. Format: biochemical. Conditions: read-out: GSK3α % inhibition at 20 μM.
Sequence of GSK3α (P49840 whole entry): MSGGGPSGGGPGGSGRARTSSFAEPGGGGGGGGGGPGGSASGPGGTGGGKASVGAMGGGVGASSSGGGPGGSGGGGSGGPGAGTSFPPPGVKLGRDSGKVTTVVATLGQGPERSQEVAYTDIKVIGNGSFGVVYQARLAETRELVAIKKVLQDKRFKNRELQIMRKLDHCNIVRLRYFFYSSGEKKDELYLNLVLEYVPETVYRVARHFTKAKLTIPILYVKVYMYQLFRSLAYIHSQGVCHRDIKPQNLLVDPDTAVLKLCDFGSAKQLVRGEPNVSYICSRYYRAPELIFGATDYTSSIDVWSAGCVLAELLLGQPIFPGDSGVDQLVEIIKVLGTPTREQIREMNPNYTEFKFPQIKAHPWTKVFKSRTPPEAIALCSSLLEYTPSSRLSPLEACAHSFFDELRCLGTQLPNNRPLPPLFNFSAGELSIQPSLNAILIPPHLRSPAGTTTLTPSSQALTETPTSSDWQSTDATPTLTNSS
Experiment [14] addresses KDR/VEGFR2 (Homo sapiens, UniProt P35968). The experiment is described as follows: Kinase selectivity assay KDR/VEGFR2. Conditions: read-out: KDR/VEGFR2 % inhibition at 20 μM. Format: biochemical.
Experiment [15] concerns the target CDK2/E (Homo sapiens, UniProt P24941). The experiment in a line: Kinase selectivity assay CDK2/E. Format: biochemical. The conditions noted are these: read-out: CDK2/E % inhibition at 20 μM.
The target in experiment [16] is PKCα (Homo sapiens, UniProt P17252). The experiment is described as follows: Kinase selectivity assay PKCα. The experiment is classed as biochemical.
Experiment [17] deals with WEE1 (Homo sapiens, UniProt P30291). The experiment is described as follows: Kinase selectivity assay WEE1. Format: biochemical.
Where [18] appears, read: read-out: CDK5/p25 inhibition @50μM.

“And” between values parts separate entries of the source, which are not always exact repeats. Equal entries are not always repeated. Where two headings read alike, the source gives them in different places.

Sequence of CDK5/p25 (Q00535 whole entry): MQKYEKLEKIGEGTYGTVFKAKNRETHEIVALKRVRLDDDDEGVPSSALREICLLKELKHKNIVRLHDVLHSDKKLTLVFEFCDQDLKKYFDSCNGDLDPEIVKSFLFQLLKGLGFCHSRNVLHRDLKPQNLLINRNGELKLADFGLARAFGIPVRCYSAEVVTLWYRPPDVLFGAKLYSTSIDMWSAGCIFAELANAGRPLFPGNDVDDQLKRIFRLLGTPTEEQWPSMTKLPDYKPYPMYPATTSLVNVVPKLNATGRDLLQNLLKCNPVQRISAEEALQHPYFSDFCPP
Sequence of CDK5/p25 (Q15078 99-307 partner limits assumed): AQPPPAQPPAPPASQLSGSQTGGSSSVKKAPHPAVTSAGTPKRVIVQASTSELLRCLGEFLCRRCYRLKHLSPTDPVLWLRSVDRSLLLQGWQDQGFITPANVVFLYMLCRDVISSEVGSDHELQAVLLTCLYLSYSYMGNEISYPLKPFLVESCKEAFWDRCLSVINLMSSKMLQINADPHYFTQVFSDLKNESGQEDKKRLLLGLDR
Sequence of full length hCDK5/p25 (Q00535 whole entry): as the sequence (Q00535 whole entry) above
Sequence of full length hCDK5/p25 (Q15078 99-307 partner limits assumed): as the sequence (Q15078 99-307 partner limits assumed) above
Sequence of KDR/VEGFR2 (P35968 20-1356): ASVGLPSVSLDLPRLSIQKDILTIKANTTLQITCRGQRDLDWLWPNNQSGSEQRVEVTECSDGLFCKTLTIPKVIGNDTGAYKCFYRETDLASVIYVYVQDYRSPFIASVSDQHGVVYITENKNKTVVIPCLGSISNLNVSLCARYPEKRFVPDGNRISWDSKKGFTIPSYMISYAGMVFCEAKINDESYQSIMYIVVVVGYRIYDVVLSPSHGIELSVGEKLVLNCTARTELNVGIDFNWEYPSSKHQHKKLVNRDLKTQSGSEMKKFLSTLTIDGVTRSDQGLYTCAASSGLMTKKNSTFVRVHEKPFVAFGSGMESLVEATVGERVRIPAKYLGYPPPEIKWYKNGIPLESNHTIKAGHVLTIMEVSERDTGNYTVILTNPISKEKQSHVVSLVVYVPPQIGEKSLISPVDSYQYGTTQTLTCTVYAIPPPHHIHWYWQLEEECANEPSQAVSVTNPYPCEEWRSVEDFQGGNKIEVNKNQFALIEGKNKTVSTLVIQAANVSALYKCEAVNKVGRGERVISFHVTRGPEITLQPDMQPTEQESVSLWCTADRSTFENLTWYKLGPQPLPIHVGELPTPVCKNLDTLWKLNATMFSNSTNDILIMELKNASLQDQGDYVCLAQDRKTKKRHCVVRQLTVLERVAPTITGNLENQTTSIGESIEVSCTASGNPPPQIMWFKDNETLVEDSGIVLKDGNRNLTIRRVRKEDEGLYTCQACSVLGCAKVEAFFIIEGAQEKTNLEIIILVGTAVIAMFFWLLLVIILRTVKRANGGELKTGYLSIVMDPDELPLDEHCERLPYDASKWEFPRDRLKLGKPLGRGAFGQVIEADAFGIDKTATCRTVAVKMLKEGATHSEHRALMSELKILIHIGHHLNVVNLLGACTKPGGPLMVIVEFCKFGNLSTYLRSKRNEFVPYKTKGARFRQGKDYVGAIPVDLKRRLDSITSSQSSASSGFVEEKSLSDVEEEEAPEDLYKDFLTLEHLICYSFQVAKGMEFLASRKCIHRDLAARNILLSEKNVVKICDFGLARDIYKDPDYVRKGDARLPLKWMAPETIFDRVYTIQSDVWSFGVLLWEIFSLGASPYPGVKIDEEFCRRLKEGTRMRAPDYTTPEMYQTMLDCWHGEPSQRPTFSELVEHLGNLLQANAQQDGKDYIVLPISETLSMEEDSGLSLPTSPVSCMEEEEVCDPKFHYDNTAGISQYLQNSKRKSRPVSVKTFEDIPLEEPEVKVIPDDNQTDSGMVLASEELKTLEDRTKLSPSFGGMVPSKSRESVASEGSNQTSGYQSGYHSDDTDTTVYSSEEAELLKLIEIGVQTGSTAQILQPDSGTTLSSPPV

`O=C(O)c1cc2c(=O)[nH]c3ccccc3c2s1` [Compound 14, 4-oxo-4,5-dihydrothieno[3,2-c]quinoline-2-carboxylic acid]: in [1], the “CDK5/p25 activity (in words)” value is recorded as “active”. Besides, the concentration for half-maximal inhibition (IC50) (commonly the concentration needed to halve the response being measured) in experiment [1] (Table 4) was 52 µM and 52.1 µM. Further, the “preference CDK5/p25 versus CDK2/E (in words)” value in experiment [1] (comparison of the two kinase assays) is “CDK5/p25 selectivity”. Also, the inhibition at 50 µM in [1] (read-out: CDK5/p25 % inhibition @ 50 μM) worked out at 64.8%; in experiment [2] (read-out: CDK2/E % inhibition @ 50 μM, 50 μM compound, 10 μM ATP), 23.5%; in [2] (read-out: CDK2/E % inhibition, 50 μM compound, ATP Km concentration) it was 14%. Besides, in [3], the “mode of inhibition with respect to ATP” value was “competitive inhibition”.

For the molecule `O=C(Nc1ccccc1C(=O)O)c1cc2c(=O)[nH]c3ccccc3c2s1` [Compound 25s, 2-(4-oxo-4,5-dihydrothieno[3,2-c]quinoline-2-carboxamido)benzoic acid], the inhibition at 20 µM in experiment [4] is 23%; in experiment [6] (read-out: PKA % inhibition at 20 μM), 89%; in experiment [8], 50%; in [9], 7%; in [10] it was 41%; in experiment [11], 81%. Moreover, the figures for the inhibition at 20 µM in experiment [13], in experiment [14] and in experiment [15] were 79%, 88% and 5%, respectively. Moreover, in experiment [5], the “CDK4/D1 % inhibition at 20 μM” value is “No inhibition”. Besides, the “CDK1/B % inhibition at 20 μM” value in [7] (20 μM compound, ATP Km 5 μM) is reported as “No inhibition”. For the same molecule, the “CDK6/D1 % inhibition at 20 μM” value in experiment [12] is given as “No inhibition”. The IC50 in [1] (Table 5) is 4.3 µM. For the same molecule, the inhibition at 50 µM in experiment [1] (setting [18]) was 70.6%. The “CDK2/E inhibition @50μM” value in [2] (50 μM compound, ATP (Km) 65 μM, Table 5) was “No inhibition”. Besides, the “mode of inhibition with respect to ATP” value in experiment [3] is “ATP non-competitive inhibition”. Further, the “PKCα % inhibition at 20 μM” value in [16] (20 μM compound, ATP Km 10 μM) was “No inhibition”. Besides, the “WEE1 % inhibition at 20 μM” value in experiment [17] (20 μM compound, ATP Km 50 μM) was “No inhibition”.

Consider `O=C(Nc1ccccn1)c1cc2c(Cl)nc3ccccc3c2s1` [Compound 25w, 4-chloro-N-(pyridin-2-yl)thieno[3,2-c]quinoline-2-carboxamide], for which the inhibition at 20 µM amounted to 4% in experiment [4]; 35% in experiment [7] (read-out: CDK1/B % inhibition at 20 μM); 45% in experiment [8]; 4% in experiment [9]; 19% in experiment [10]; 41% in [11]. Moreover, the inhibition at 20 µM in experiment [13] came to 22%; in experiment [14], 44%; in experiment [15], 6%; in experiment [16] (read-out: PKCα % inhibition at 20 μM), 1%; in experiment [17] (read-out: WEE1 % inhibition at 20 μM), 2%. In addition, the “CDK4/D1 % inhibition at 20 μM” value in experiment [5] is “No inhibition”. Besides, in experiment [6] (20 μM compound, ATP Km 20 μM), the “PKA % inhibition at 20 μM” value is on record as “No inhibition”. The “CDK6/D1 % inhibition at 20 μM” value in experiment [12] was “No inhibition”. The concentration for half-maximal inhibition (IC50) in [1] (Table 5) amounted to 3.8 µM. The inhibition at 50 µM was 75.4% in experiment [1] (setting [18]) and 21.8% in experiment [2] (read-out: CDK2/E inhibition @50μM, 50 μM compound, ATP (Km) 65 μM, Table 5). In addition, the “mode of inhibition with respect to ATP” value in experiment [3] is listed as “ATP non-competitive inhibition”.

For the origin of these results see article PMC4254530 (Bioorganic & medicinal chemistry, 2014).
